Format in all cases: cell-based
In experiment [1] the target is TRPML1 (Homo sapiens, UniProt Q9GZU1). Nature of the experiment: Fluorescent TRPML1 assay (Fluo4-AM calcium fluorescence in doxycycline-induced HEK-293 Trex cells). In short, it runs like this: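 First, expression of surface-targeted mutant human TRPML1 is induced in HEK-293 Trex cells with 0.5 ug/mL doxycycline the day before. Next, cells take up 1 micromolar Fluo4-AM in Ringer's with 0.1% Pluronic. Finally, they are added to compounds (6 nanomolar–20 micromolar final) in 10 mM calcium Ringer's and fluorescence is read.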
Sequence of TRPML1 (Q9GZU1 whole entry L15A/L16A/L577A/L578A, form open): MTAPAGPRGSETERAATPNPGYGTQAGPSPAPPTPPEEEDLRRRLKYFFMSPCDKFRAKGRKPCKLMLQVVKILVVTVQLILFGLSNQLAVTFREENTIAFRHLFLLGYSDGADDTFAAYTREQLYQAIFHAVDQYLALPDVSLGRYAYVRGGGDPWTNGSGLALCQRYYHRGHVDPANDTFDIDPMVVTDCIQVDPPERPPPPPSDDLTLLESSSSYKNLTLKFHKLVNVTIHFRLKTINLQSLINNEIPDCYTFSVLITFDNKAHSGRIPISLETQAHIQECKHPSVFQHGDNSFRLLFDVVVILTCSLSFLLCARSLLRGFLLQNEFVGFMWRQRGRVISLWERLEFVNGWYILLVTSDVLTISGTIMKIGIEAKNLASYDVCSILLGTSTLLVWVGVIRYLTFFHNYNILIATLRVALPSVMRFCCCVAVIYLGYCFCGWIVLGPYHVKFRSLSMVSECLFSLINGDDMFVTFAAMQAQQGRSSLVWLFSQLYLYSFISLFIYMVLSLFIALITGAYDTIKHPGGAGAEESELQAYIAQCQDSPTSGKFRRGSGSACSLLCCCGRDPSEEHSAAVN

For experiment [2], the target named is T1, TRPML2 (Homo sapiens, UniProt Q8IZK6).
T1 construct: expressed in transfected cells
T1 sequence (Q8IZK6 1-566): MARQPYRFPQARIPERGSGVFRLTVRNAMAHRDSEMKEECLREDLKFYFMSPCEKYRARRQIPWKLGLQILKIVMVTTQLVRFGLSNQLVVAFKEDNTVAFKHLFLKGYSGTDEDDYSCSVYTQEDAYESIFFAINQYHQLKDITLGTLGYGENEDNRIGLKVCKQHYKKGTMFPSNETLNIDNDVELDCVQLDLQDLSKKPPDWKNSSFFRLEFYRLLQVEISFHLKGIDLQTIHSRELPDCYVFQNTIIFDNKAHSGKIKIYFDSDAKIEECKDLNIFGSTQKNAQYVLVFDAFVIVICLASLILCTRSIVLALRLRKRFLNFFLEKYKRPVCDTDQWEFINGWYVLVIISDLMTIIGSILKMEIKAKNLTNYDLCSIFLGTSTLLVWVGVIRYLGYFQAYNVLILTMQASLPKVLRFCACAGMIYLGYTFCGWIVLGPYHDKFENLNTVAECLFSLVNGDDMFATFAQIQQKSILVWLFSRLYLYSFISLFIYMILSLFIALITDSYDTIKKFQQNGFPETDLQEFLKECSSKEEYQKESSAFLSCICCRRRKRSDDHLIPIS
In words: Fluorescent TRPML2 assay (performed as for TRPML1, substituting the TRPML2 subtype). In short, it runs like this: (§1)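 Calcium-influx readout: Fluo4 fluorescence at 480/540 nm, normalised to positive and negative controls per plate, EC50 fitted by non-linear regression. Cells were HEK-293 Trex stable lines, channel expression induced overnight with 0.5 ug/mL doxycycline; tested at 20 micromolar down to 6 nanomolar final, half-log steps, triplicate.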

For experiment [3], the target named is T2, TRPML3 (Homo sapiens, UniProt Q8TDD5).
T2 construct: expressed in transfected cells
T2 sequence (Q8TDD5 1-553): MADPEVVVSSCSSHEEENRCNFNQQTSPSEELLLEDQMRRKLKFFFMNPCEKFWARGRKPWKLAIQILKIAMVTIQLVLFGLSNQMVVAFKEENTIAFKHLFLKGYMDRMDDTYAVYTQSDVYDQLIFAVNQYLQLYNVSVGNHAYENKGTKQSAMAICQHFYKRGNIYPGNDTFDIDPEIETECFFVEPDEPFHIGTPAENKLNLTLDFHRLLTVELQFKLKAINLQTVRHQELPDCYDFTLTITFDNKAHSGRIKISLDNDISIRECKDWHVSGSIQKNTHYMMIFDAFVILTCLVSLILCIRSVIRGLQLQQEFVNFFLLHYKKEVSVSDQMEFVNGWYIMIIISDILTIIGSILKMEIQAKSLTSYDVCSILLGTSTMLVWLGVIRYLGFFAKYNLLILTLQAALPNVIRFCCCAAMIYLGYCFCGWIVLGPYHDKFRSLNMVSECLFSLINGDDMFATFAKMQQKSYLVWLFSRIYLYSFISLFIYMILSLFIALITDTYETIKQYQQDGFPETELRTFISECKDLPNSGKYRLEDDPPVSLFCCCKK
Nature of the experiment: Fluorescent TRPML3 assay (performed as for TRPML1, substituting the TRPML3 subtype). Put shortly:
as §1

For the compound `C[C@@H]1CN(c2ncnc3c2c(OC(F)(F)F)cn3-c2cc(C#N)ccn2)[C@@H](C)CN1C(=O)OC(C)(C)C` [Compound 524, tert-butyl (2R,5S)-4-(7-(4-cyanopyridin-2-yl)-5-(trifluoromethoxy)-7H-pyrrolo[2,3-d]pyrimidin-4-yl)-2,5-dimethylpiperazine-1-carboxylate], the EC50 in experiment [1], in experiment [2] and in experiment [3] was under 100 nM each time.

In the case of `C[C@@H]1CN(c2ncnc3c2c(C(C)(C)C)cn3-c2cc(C#N)ccn2)[C@@H](C)CN1C(=O)OC(C)(C)C` [Compound 525, tert-butyl (2R,5S)-4-(5-(tert-butyl)-7-(4-cyanopyridin-2-yl)-7H-pyrrolo[2,3-d]pyrimidin-4-yl)-2,5-dimethylpiperazine-1-carboxylate], the EC50 in experiment [1], in experiment [2] and in experiment [3] was under 100 nM each time.

As to `C[C@H]1CN(C(=O)OC(C)(C)C)CCN1c1ncnc2c1c(N(C)C1CC1)cn2-c1cccc(C#N)c1` [Compound 526], the EC50 in experiment [1], in experiment [2] and in experiment [3] was 100 to 500 nM each time.

As for `C[C@H]1CN(C(=O)OC(C)(C)C)CCN1c1ncnc2c1c(C1CC1)cn2[C@H]1CCC[C@@H](C#N)C1` [Compound 527, tert-butyl (S)-4-(7-(cis-3-cyanocyclohexyl)-5-cyclopropyl-7H-pyrrolo[2,3-d]pyrimidin-4-yl)-3-methylpiperazine-1-carboxylate], the EC50 – broadly, the concentration that produces a half-maximal response – was 500 to 2000 nM in experiment [1], over 2000 nM in experiment [2] and 500 to 2000 nM in experiment [3].

With `CC(C)(C)OC(=O)N1CCN(c2ncnc3c2c(C(F)(F)F)cn3-c2cc(C#N)ccn2)C(C)(C)C1` [Compound 528, tert-butyl 4-(7-(4-cyanopyridin-2-yl)-5-(trifluoromethyl)-7H-pyrrolo[2,3-d]pyrimidin-4-yl)-3,3-dimethylpiperazine-1-carboxylate], the EC50 in experiment [1] was 100 to 500 nM; in experiment [2], under 100 nM; in experiment [3] it was under 100 nM.

In the case of `C[C@H]1CN(C(=O)OC(C)(C)C)CCN1c1ncnc2c1c(N1CCCC1)cn2[C@H]1CCC[C@@H](C#N)C1` [Compound 529, tert-butyl (S)-4-(7-(cis-3-cyanocyclohexyl)-5-(pyrrolidin-1-yl)-7H-pyrrolo[2,3-d]pyrimidin-4-yl)-3-methylpiperazine-1-carboxylate], the EC50 in experiment [1] was 500 to 2000 nM; in experiment [2], over 2000 nM; in experiment [3] it was 100 to 500 nM.

Take `CC(C)(C)OC(=O)N1CCN(c2ncnc3c2c(C(F)(F)F)cn3-c2cc(C#N)ccn2)C2(CC2)C1` [Compound 530, tert-butyl 4-(7-(4-cyanopyridin-2-yl)-5-(trifluoromethyl)-7H-pyrrolo[2,3-d]pyrimidin-4-yl)-4,7-diazaspiro[2.5]octane-7-carboxylate]: the EC50 in experiment [1], in experiment [2] and in experiment [3] was under 100 nM throughout.

As to `C[C@@H]1CN(c2ncnc3c2c(C(C)(C)C)cn3-c2nccc(C#N)n2)[C@@H](C)CN1C(=O)OC(C)(C)C` [Compound 532, tert-butyl (2R,5S)-4-(5-(tert-butyl)-7-(4-cyanopyrimidin-2-yl)-7H-pyrrolo[2,3-d]pyrimidin-4-yl)-2,5-dimethylpiperazine-1-carboxylate], the EC50 in experiment [1] is under 100 nM; in experiment [2], 500 to 2000 nM; in experiment [3], 100 to 500 nM.

In the case of `C[C@@H]1CN(c2ncnc3c2c(C(C)(C)C)cn3-c2cc(C#N)ncn2)[C@@H](C)CN1C(=O)OC(C)(C)C` [Compound 533, tert-butyl (2R,5S)-4-(5-(tert-butyl)-7-(6-cyanopyrimidin-4-yl)-7H-pyrrolo[2,3-d]pyrimidin-4-yl)-2,5-dimethylpiperazine-1-carboxylate], the EC50 in experiment [1], in experiment [2] and in experiment [3] was under 100 nM throughout.

Turning to `C[C@@H]1CN(c2ncnc3c2c(C(F)(F)F)cn3-c2cc(C#N)ccn2)[C@@H](C)CN1C(=O)OC1(C)CCC1` [Compound 535, 1-methylcyclobutyl (2R,5S)-4-(7-(4-cyanopyridin-2-yl)-5-(trifluoromethyl)-7H-pyrrolo[2,3-d]pyrimidin-4-yl)-2,5-dimethylpiperazine-1-carboxylate], the EC50 in experiment [1], in experiment [2] and in experiment [3] was under 100 nM each time.

Turning to `C[C@@H]1CN(c2ncnc3c2c(C(F)(F)F)cn3-c2cc(C(F)(F)F)ccn2)[C@@H](C)CN1C(=O)OC(C)(C)C` [Compound 536, tert-butyl (2R,5S)-2,5-dimethyl-4-(5-(trifluoromethyl)-7-(4-(trifluoromethyl)pyridin-2-yl)-7H-pyrrolo[2,3-d]pyrimidin-4-yl)piperazine-1-carboxylate], the EC50 in experiment [1], in experiment [2] and in experiment [3] was under 100 nM throughout.

In the case of `Cc1cn(-c2cc(C(F)(F)F)ccn2)c2ncnc(N3C[C@@H](C)N(C(=O)OC(C)(C)C)C[C@@H]3C)c12` [Compound 537, tert-butyl (2R,5S)-2,5-dimethyl-4-(5-methyl-7-(4-(trifluoromethyl)pyridin-2-yl)-7H-pyrrolo[2,3-d]pyrimidin-4-yl)piperazine-1-carboxylate], the EC50 in experiment [1], in experiment [2] and in experiment [3] was under 100 nM throughout.

Turning to `[2H]C([2H])([2H])C(OC(=O)N1C[C@H](C)N(c2ncnc3c2c(C(F)F)cn3-c2cc(C#N)ccn2)C[C@H]1C)(C([2H])([2H])[2H])C([2H])([2H])[2H]` [Compound 538, 2-(methyl-d3)propan-2-yl-1,1,1,3,3,3-d6 (2R,5S)-4-(7-(4-cyanopyridin-2-yl)-5-(difluoromethyl)-7H-pyrrolo[2,3-d]pyrimidin-4-yl)-2,5-dimethylpiperazine-1-carboxylate], the values for the EC50 in experiment [1], in experiment [2] and in experiment [3] were under 100 nM, 100 to 500 nM and under 100 nM, respectively.

On to `CC(C)(C)OC(=O)N1CCN(c2ncnc3c2c(N2CCCC2)cn3-c2cc(C#N)ccn2)C(C)(C)C1` [Compound 601, tert-butyl 4-(7-(4-cyanopyridin-2-yl)-5-(pyrrolidin-1-yl)-7H-pyrrolo[2,3-d]pyrimidin-4-yl)-3,3-dimethylpiperazine-1-carboxylate], for which the EC50 in experiment [1] is under 100 nM; in experiment [2], 100 to 500 nM; in experiment [3], under 100 nM.

As to `[2H]C([2H])([2H])C(OC(=O)N1C[C@@H](C)N(c2ncnc3c2c(C(F)(F)F)cn3-c2cc(C#N)ccn2)C[C@H]1C)(C([2H])([2H])[2H])C([2H])([2H])[2H]` [Compound 602, 2-(methyl-d3)propan-2-yl-1,1,1,3,3,3-d6 (2R,5R)-4-(7-(4-cyanopyridin-2-yl)-5-(trifluoromethyl)-7H-pyrrolo[2,3-d]pyrimidin-4-yl)-2,5-dimethylpiperazine-1-carboxylate], the values for the EC50 in experiment [1], in experiment [2] and in experiment [3] were under 100 nM, 500 to 2000 nM and 100 to 500 nM, respectively.

Consider `[2H]C([2H])([2H])C(OC(=O)N1C[C@H](C)N(c2ncnc3c2c(C(F)(F)F)cn3-c2cc(C#N)ccn2)C[C@@H]1C)(C([2H])([2H])[2H])C([2H])([2H])[2H]` [Compound 603, 2-(methyl-d3)propan-2-yl-1,1,1,3,3,3-d6 (2S,5S)-4-(7-(4-cyanopyridin-2-yl)-5-(trifluoromethyl)-7H-pyrrolo[2,3-d]pyrimidin-4-yl)-2,5-dimethylpiperazine-1-carboxylate], for which the EC50 in experiment [1] is under 100 nM; in experiment [2] it was 500 to 2000 nM; in experiment [3], under 100 nM.

The values above are taken from patent US20250136606A1, “MODULATORS OF TRPML, THEIR COMPOSITIONS AND METHODS OF USE” (Caraway Therapeutics, Inc., priority 2021, published 2025).
